Test results from US20260297105A1, “RAF-MEK PROTEIN COMPLEX MODULATORS AND METHODS OF USE THEREOF” (GANDEEVA THERAPEUTICS, INC., priority 2023, published 2026).

Columns and labels:
MEK1 = biological target: T1, MEK1 (Homo sapiens, UniProt Q02750); test: MEK1 kinase cascade assay (ADP-Glo), inhibition of MEK1 kinase activity; type: biochemical; conditions: 25 nM BRAF, 6.25 nM MEK1, 0.5 μM ERK, 1 mM ATP; 20 min preincubation, 1 hr at 25° C.; read-out: BRAF ADP Glo kinase assay V3 (IC50)
T1 construct: purchased SignalChem M02-14H
T1 sequence (Q02750 whole entry): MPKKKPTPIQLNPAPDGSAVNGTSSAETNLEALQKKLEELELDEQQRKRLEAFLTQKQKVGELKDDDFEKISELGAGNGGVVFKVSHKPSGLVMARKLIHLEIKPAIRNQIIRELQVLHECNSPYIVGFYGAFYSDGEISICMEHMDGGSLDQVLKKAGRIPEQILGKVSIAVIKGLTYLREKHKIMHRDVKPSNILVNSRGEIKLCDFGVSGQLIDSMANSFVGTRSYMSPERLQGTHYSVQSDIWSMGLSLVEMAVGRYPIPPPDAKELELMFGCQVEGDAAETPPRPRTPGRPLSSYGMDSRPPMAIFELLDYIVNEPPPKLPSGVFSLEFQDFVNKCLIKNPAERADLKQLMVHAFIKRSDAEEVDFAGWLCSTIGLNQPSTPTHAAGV
T1 sequence (P15056 445-723 partner limits assumed): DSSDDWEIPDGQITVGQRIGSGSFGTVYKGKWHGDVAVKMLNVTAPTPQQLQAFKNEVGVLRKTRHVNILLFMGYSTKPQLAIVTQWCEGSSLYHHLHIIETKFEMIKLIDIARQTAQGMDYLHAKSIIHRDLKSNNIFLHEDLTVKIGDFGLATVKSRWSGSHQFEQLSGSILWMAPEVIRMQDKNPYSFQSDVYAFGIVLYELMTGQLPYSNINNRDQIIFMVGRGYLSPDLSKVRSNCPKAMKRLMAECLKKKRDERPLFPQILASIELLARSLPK
Summary of the method: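 Compounds were preincubated 20 mins at 25° C with 25 nM BRAF(445-723) in 10 mM HEPES pH 7.5, 5 mM MgCl2, 2 mM CHAPS, 1 mM DTT, then 6.25 nM MEK1, 0.5 μM ERK1 and 1 mM ATP were added for 1 hr at 25° C, with 1% DMSO. ADP-Glo luminescence was normalized to DMSO and 1 μM Trametinib; IC50 came from 4-parameter fits of duplicates.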

p-ERK1/2 in HCT116 cells = test: AlphaLISA p-ERK assay, cellular inhibition of ERK phosphorylation in HCT116 cells; type: cell-based; conditions: Homo sapiens, HCT-116, 2 hours treatment, PMA stimulation 30 mins
Experimental: (§1) Cell culture: HCTI 16, HT-29, and NCI-H292 cells were acquired from American Type Culture Collection (ATCC). HCT116 and HT-29 cells were maintained in ATCC-formulated McCoy's 5a Medium Modified supplemented with 10% fetal bovine serum, NCI-H292 cells were cultured in ATCC formulated RPMI-1640 supplemented with 10% fetal bovine serum. All cells were maintained at 37° C., 5% CO2.
Efficacy of exemplary compounds in cellular inhibition of ERK phosphorylation: Phosphorylation status of ERK1/2 (p-ERK) was used as a readout for inhibition of BRAF-MEK pathway. p-ERK was detected using an immunoassay for quantitative detection of phospho-ERK 1/2 (phosphorylated on Thr202/Tyr204 in ERK1, or Thr185/Tyr187 in ERK2), such as the AlphaLISA® SureFire® Ultra™ p-ERK1/2 (Thr202/Tyr204) kit (Perkin Elmer). HCT116 cells were plated at 10,000 cells per well in 384-well TC-treated plates (Coming). Cells were plated for 24 hours, the medium was then aspirated and cells were treated with vehicle (DMSO) or test compounds (0.1% DMSO in final volume) prepared in serum free, phenol red free medium for 2 hours. Following treatment, cells were stimulated with PMA (1.25 μM/well) for 30 mins after which the medium was aspirated, and the cells were lysed for 10 mins with 1× lysis buffer supplemented with Halt Protease and Phosphatase Inhibitor Cocktail (Thermo Fisher). The lysate was transferred to a 384 well Alpha-plate (PerkinElmer) and incubated for 1 hour with acceptor bead mix followed by 1 hour incubation with donor bead mix. After incubation, the plate was read on a Cytation5 microplate reader (Agilent). % inhibition as a function of compound concentration from 3 replicate wells was fit with a 4-parameter logistic curve using GraphPad Prism or CDD Vault to derive IC50 values.
(§2) In this table, for the BRAF ADP Glo kinase assay, “A” indicates IC50 of less than 5 nM; “B” indicates IC50 of between 5 nM to 50 nM; and “C” indicates IC50 of between 50 nM to 500 nM. “D” indicates IC50 of greater than 500 nM. For the BRAF-MEK TR-FRET assay, “A” indicates EC50 of less than 50 nM; “B” indicates EC50 of between 50 nM to 200 nM; and “C” indicates EC50 of between 200 nM to 1 μM. “D′” indicates EC50 of greater than 1 μM. For the AlphaLisa P-ERK assay, “A” indicates IC50 of less than 1 nM; “B” indicates IC50 of between 1 nM to 10 nM; and “C” indicates IC50 of between 10 nM to 100 nM. “D” indicates IC50 of greater than 100 nM. For the cell viability assay, “A” indicates IC50 of less than 1 nM; “B” indicates IC50 of between 1 nM to 10 nM; and “C” indicates IC50 of between 10 nM to 100 nM. “D” indicates IC50 of greater than 100 nM.

BRAF-MEK1 = test: BRAF-MEK TR-FRET assay, stabilization of MEK1 and BRAF interaction; type: binding; conditions: 4 nM BRAF, 10 nM MEK, 100 μM ATP; 1 hr at 25° C.; read-out: BRAF-MEK TR-FRET Assay (EC50, fold stabilization)
Summary of the method: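 His-MEK1 (full-length, E. coli) at 10 nM with GST-BRAF at 4 nM, 1 h at 25° C in pH 7.5 Tris buffer with 5 mM MgCl2 and 100 μM ATP; anti-His-Tb/anti-GST-XL665 added for 1 h more. 665/620 FRET ratio over DMSO gives fold stabilization; EC50 from 4-parameter fit, duplicate wells.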

NCI-H292 cells = test: Cell viability assay (CellTiter-Glo), NCI-H292; type: cell-based; conditions: Homo sapiens, 72 hrs, read-out: Cell Viability Assay: IC50 Determination NCI-H292
Experimental: as §1
Efficacy of exemplary compounds in inhibition of cell viability: HCT116 and HT-29 cells were plated at 4,000 cells per well and NCI-H292 cells were plated at 2,000 cells per well in their respective media in 384-well white, TC-treated plates (Corning). After 24 hours of incubation, the cells were treated with vehicle (DMSO) or test compounds (0.1% DMSO in final volume) for 72 hrs. The plate was equilibrated at room temperature for 10 mins followed by addition of a 1:1 volume of CellTiter-Glo® reagent (Promega). The contents were mixed for 2 mins on an orbital shaker to induce lysis. The plate was incubated at room temperature for 10 mins to stabilize luminescent signal before measuring luminescence on a Cytation5 microplate reader (Agilent). % inhibition as a function of compound concentration from 3 replicate wells was fit with a 4-parameter logistic curve using GraphPad Prism or CDD Vault to derive IC50 values.
as §2

Compound | IC50 (MEK1) | IC50 (p-ERK1/2 in HCT116 cells) | EC50 (BRAF-MEK1) | IC50 (NCI-H292 cells)
CNS(=O)(=O)Nc1nccc(CN2C(=O)Oc3cc(Oc4cccnn4)ccc3[C@@H]2C)c1F (single isomer, unassigned) [Compound 22] | 5 to 50 nM | 10 to 100 nM | 50 to 200 nM | 
CNS(=O)(=O)Nc1cccc(CN2C(=O)Oc3cc(Oc4cccnn4)ccc3C2(C)C)c1F [Compound 51, 3-({2-fluoro-3-[(methylsulfamoyl)amino]phenyl}methyl)-4,4-dimethyl-7-(pyridazine-3-yloxy)-3,4-dihydro-2H-1,3-benzoxazin-2-one] | 5 to 50 nM |  | 200 to 1000 nM | 10 to 100 nM
CNS(=O)(=O)Nc1cccc(CN2C(=O)Oc3cc(Oc4ncco4)ccc3[C@@H]2C)c1F (single isomer, unassigned) [Compound 78, (S)-3-({2-fluoro-3-(methylsulfamoyl)amino]phenyl}methyl)-4-methyl-7-(1,3-oxazol-2-yloxy)-3,4-dihydro-2H-1,3-benzoxazin-2-one or (R)-3-({2-fluoro-3-(methylsulfamoyl)amino]phenyl}methyl)-4-methyl-7-(1,3-oxazol-2-yloxy)-3,4-dihydro-2H-1,3-benzoxazin-2-one] | 5 to 50 nM |  | 200 to 1000 nM | 10 to 100 nM
CNS(=O)(=O)Nc1cccc(CN2Cc3cc(C)c(OC(=O)N(C)C)cc3OC2=O)c1F [Compound 112, 3-(2-fluoro-3-((N-methylsulfamoyl)amino)benzyl)-6-methyl-2-oxo-3,4-dihydro-2H-benzo[e][1,3]oxazin-7-yl dimethylcarbamate] | < 5 nM |  | 200 to 1000 nM | 1 to 10 nM
CNS(=O)(=O)Nc1cccc(CN2C(=O)Oc3cc(OC(=O)N(C)C)ccc3C23CCC3)c1F [Compound 38, 3-({2-fluoro-3-[(methylsulfamoyl)amino]phenyl}methyl)-2-oxo-2,3-dihydrospiro[1,3-benzoxazine-4,1′-cyclobutan]-7-yl N,N-dimethylcarbamate] | < 5 nM |  | < 50 nM | < 1 nM
CNS(=O)(=O)Nc1cccc(CN2C(=O)Oc3c(ccc(OC(=O)N(C)C)c3F)[C@@H]2C)c1F (single isomer, unassigned) [Compound 103, (S)-8-fluoro-3-(2-fluoro-3-((N-methylsulfamoyl)amino)benzyl)-4-methyl-2-oxo-3,4-dihydro-2H-benzo[e][1,3]oxazin-7-yl dimethylcarbamate or (R)-8-fluoro-3-(2-fluoro-3-((N-methylsulfamoyl)amino)benzyl)-4-methyl-2-oxo-3,4-dihydro-2H-benzo[e][1,3]oxazin-7-yl dimethylcarbamate] | 5 to 50 nM |  | 200 to 1000 nM | 1 to 10 nM
CNS(=O)(=O)Nc1nccc(CN2C(=O)Oc3cc(Oc4ncco4)c(F)cc3C23CCC3)c1F [Compound 165, 6-fluoro-3-{[3-fluoro-2-(methylaminosulfonylamino)-4-pyridyl]methyl}-7-(1,3-oxazol-2-yloxy)-2H,3H-spiro[1,3-benzoxazine-4,1′-cyclobutan]-2-one] | < 5 nM |  | < 50 nM | 1 to 10 nM
CN(C)C(=O)Oc1ccc2c(c1)OC(=O)N(Cc1cccc(CN3CCOC3=O)c1F)C2 [Compound 21, 3-(2-fluoro-3-((2-oxooxazolidin-3-yl)methyl)benzyl)-2-oxo-3,4-dihydro-2H-benzo[e][1,3]oxazin-7-yl dimethylcarbamate] | 5 to 50 nM | 1 to 10 nM | 200 to 1000 nM | 
CN(C)C(=O)Oc1ccc2c(c1)OC(=O)N(Cc1cccc(NS(=O)(=O)N3CCC(F)C3)c1F)C2 (stereo not drawn) [Compound 113, 3-(2-fluoro-3-((3-fluoropyrrolidine)-1-sulfonamido)benzyl)-2-oxo-3,4-dihydro-2H-benzo[e][1,3]oxazin-7-yl dimethylcarbamate] | 5 to 50 nM |  | 200 to 1000 nM | 1 to 10 nM
CNS(=O)(=O)Nc1cccc(CN2Cc3ccc(Oc4ncccn4)c(F)c3OC2=O)c1F [Compound 123, 8-fluoro-3-{[2-fluoro-3-(methylaminosulfonylamino)phenyl]methyl}-7-(2-pyrimidinyloxy)-3,4-dihydro-2H-1,3-benzoxazin-2-one] | 5 to 50 nM |  | 200 to 1000 nM | 10 to 100 nM
CNS(=O)(=O)Nc1nccc(CN2C(=O)Oc3cc(Oc4cccnn4)c(F)cc3C23COC3)c1F [Compound 18, 6-fluoro-3-{[3-fluoro-2-(methylaminosulfonylamino)-4-pyridyl]methyl}-7-(3-pyridazinyloxy)-2H,3H-spiro[1,3-benzoxazine-4,3′-oxetan]-2-one] | 5 to 50 nM | 10 to 100 nM | < 50 nM | 
CNS(=O)(=O)Nc1cccc(CN2C(=O)Oc3cc(Oc4cccnn4)c(F)cc3C23CCC3)c1F [Compound 19, 6-fluoro-3-{1[2-fluoro-3-(methylaminosulfonylamino)phenyl]methyl}-7-(3-pyridazinyloxy)-2H,3H-spiro[1,3-benzoxazine-4,1′-cyclobutan]-2-one] | 5 to 50 nM | < 1 nM | < 50 nM | 
CN(C)C(=O)Oc1ccc2c(c1)OC(=O)N(Cc1cccc(NS(=O)(=O)C3CC3)c1F)C2 [Compound 125, 3-(3-(cyclopropanesulfonamido)-2-fluorobenzyl)-2-oxo-3,4-dihydro-2H-benzo[e][1,3]oxazin-7-yl dimethylcarbamate] | 5 to 50 nM |  | 200 to 1000 nM | 10 to 100 nM
C[C@@H]1c2ccc(Oc3cccnn3)c(F)c2OC(=O)N1Cc1cccc(NS(=O)(=O)N(C)C)c1F (single isomer, unassigned) [Compound 43] | < 5 nM |  | < 50 nM | 1 to 10 nM
O=C1Oc2cc(Oc3ncco3)c(F)cc2C2(CCC2)N1Cc1ccnc(NS(=O)(=O)C2CC2)c1F [Compound 170, (cyclopropylsulfonyl)[3-fluoro-4-({6-fluoro-7-(1,3-oxazol-2-yloxy)-2-oxo-2H,3H-spiro[1,3-benzoxazine-4,1′-cyclobutan]-3-yl}methyl)-2-pyridyl]amine] | 5 to 50 nM |  | 200 to 1000 nM | 10 to 100 nM
CNS(=O)(=O)Nc1nccc(CN2C(=O)Oc3cc(Oc4cccnn4)ccc3C23CCC3)c1F [Compound 20, 3-{[3-fluoro-2-(methylaminosulfonylamino)-4-pyridyl]methyl}-7-(3-pyridazinyloxy)-2H,3H-spiro[1,3-benzoxazine-4,1′-cyclobutan]-2-one] | < 5 nM | 1 to 10 nM | < 50 nM | 
